What was measured:
[1] = system: Caco-2 colorectal cancer cell line; test: MTT cellular viability assay, Caco2; assay type: cell-based; details: 72 hours, ± standard deviation
Experimental: (§1) Cell lines were obtained from American Type Culture Collection (ATCC, Manassas, VA). […] Caco-2 (ATCC: HTB-37) colorectal cancer was grown in EMEM with 20% FBS and 1% penicillin/streptomycin. All cell lines were incubated at 37°C in 5% CO2 with passaging every 4–7 days. Cell culture media and supplements were obtained from ATCC, Atlanta Biologicals (Flowery Branch, GA), Mediatech (Tewksbury, MA), Fisher Scientific (Waltham, MA), Gibco (Gaithersburg, MD) and Sigma-Aldrich.
(§2) The MTT (3-(4,5-dimethylthiazol-2-yl)-2,5-diphenyltetrazolium bromide) cellular viability assay was performed in all three cancer cell lines and the non-cancer cell line. Following a protocol adapted from, cells were seeded at 5,000 cells per well in 96-well plates and incubated at 37°C in 5% CO2 in F-12K Medium or EMEM with FBS supplementation and 1% penicillin/streptomycin for 24 hours. Then, wells were treated in replicates of six according to a concentration series (500, 50, 5, 0.5, 0.05 μM) of specific platinum complexes for 72 hours. A negative control (media only), positive control (Triton X-100) and series of blanks were simultaneously performed. The MTT assay was run for 2 hours, then well contents were rapidly evacuated out and all wells were treated with MTT solubilization solution [10% Triton X-100 in acidic (0.1N HCl) isopropanol] for 15 minutes before the plates were read using a BioTek Synergy HT microplate plate reader (570 nm and 690 nm absorbance wavelengths). Reagents, cell culture media and supplements were obtained from ATCC, Atlanta Biologicals, Mediatech, Fisher Scientific, Gibco and Sigma-Aldrich.
(§3) GraphPad Prism v6 (La Jolla, CA) was used for all statistical analysis. Nuclear fraction platinum uptake as a total percent of combined nuclear and cytosolic uptake was analyzed using a one-way ANOVA (Brown-Forsyth test; p ≤ 0.05). IC50 values were calculated in Prism using the sigmoidal, 4PL, x is log(concentration) analysis feature or were calculated from Prism derived values using the equation y = mx + b. MTT assay standard deviation values were calculated using ED50plus v1.0 online software. AEP threshold data were analyzed by two-way ANOVA (Dunnett’s multiple comparisons test; p ≤ 0.05) and hair cell quantification data by two-way ANOVA (Tukey’s multiple comparisons test; p ≤ 0.05). AEP temporary threshold shifts (TTS) were calculated by subtracting the mean vehicle threshold for each frequency from each treatment threshold. TTS data were averaged across frequencies for each treatment and were analyzed by one-way ANOVA (Tukey’s multiple comparisons test; p ≤ 0.05).

[2] = system: U-138 MG (HTB-16) glioblastoma cancer cell line; test: MTT cellular viability assay, HTB16; assay type: cell-based; details: HTB16 (glioma), 72 hours, ± standard deviation
Experimental: as §1, §2, §3

[3] = system: IMR-90 lung fibroblast control cell line; test: MTT cellular viability assay, IMR90; assay type: cell-based; details: IMR90 (fibroblast, non-cancer), 72 hours, ± standard deviation
Experimental: as §1, §2, §3

[4] = system: zebrafish hearing thresholds; test: Auditory evoked potential (AEP) testing in zebrafish inner ear model; assay type: in vivo, Danio rerio; details: 25 mg/kg i.p.; for mean (± S.E.) temporary threshold shift (TTS), averaged across frequencies: 48 hours, vehicle threshold subtracted; for AEP hearing threshold, significance of pairwise comparison against cisplatin / AEP hearing threshold, significance of pairwise comparison against vehicle: 48 h
Experimental: (§4) Zebrafish (Danio rerio) were purchased from a commercial supplier (Segrest Farms, Gibsonton, FL) and maintained in the animal facility of Western Kentucky University according to a protocol approved by the Institutional Animal Care and Use Committee. All zebrafish used in this study were a mix of male and female adult animals at least 6 months of age and were maintained according to standard methods.
(§5) After injection, fish were returned to holding tanks for either 24 or 48 hours and then subjected to hearing tests followed by hair cell quantification analysis.
Auditory evoked potential (AEP) testing was performed on individual fish according to standard protocols. […] After harness placement was complete, three 27 gauge stainless steel electrodes (Rochester Electro-Medical, Inc., Lutz, FL) were inserted approximately 2 mm subdermally to record AEPs. A reference electrode was inserted into the medial dorsal surface of the head, a recording electrode directly over the brainstem and a ground electrode in the tail musculature. Sound stimuli (tone pips) were presented to each fish at 8 frequencies (100, 250, 400, 600, 800, 1000, 1500 and 3000 Hz) and AEP waveforms were collected using a TDT System III physiology apparatus (Tucker-Davis Technologies Inc., Alachua, FL) running SigGen and BioSig software. Auditory stimuli were passed through a P1000 power amplifier (Hafler, Port Coquitlam, BC) and presented with a University Sound UW-30 underwater speaker (Electro-Voice, Fairport, NY). Sound pressure levels were confirmed using a Type 10CT hydrophone (G.R.A.S., Holte, Denmark) placed adjacent to the mesh harness. Auditory thresholds were determined in 5 dB increments by visual inspection of AEP waveforms.
as §3

[5] = system: zebrafish saccule hair cells; test: Hair cell quantification, saccule; assay type: in vivo, Danio rerio; details: 25 mg/kg i.p., 48 hours; for effect on hair cell density in four regions of the saccule compared to vehicle: 5, 25, 50, 75% regions
Experimental: as §4, §5
Hair cell counts were performed from specific regions of the zebrafish saccule and utricle using established procedures. […] Prior to dissection, heads were rinsed three times for 10 minutes each at room temperature in phosphate buffer (pH 7.4, LabChem, Pittsburgh, PA) and the inner ear epithelia (saccule and utricle) were then carefully dissected out and trimmed. […] Tissue samples were then placed on glass slides and nuclei were labelled with Prolong Gold antifade reagent (4’,6-diamidino-2-phenylindole [DAPI], Life Technologies, Carlsbad, CA) and a cover-slip was placed over the samples for microscopy.
Saccule and utricle samples were viewed through the FITC filter of a Zeiss Axioplan2 epifluorescence microscope (Carl Zeiss, Jena, Germany) at 20X magnification and were then photographed using an AxioCam MRm camera. Cell counts were made from four regions of the saccule (5%, 25%, 50%, 75%) along the rostral-caudal length of the organ by placing a 50 μm x 50 μm box at each location and using the microscope cell counter feature. In the utricular samples, cell counts were made from three equidistant 50 μm x 50 μm boxes in both the extrastriolar and striolar regions.
as §3

Molecule | IC50 [1] | IC50 [2] | IC50 [3] | mean (± S.E.) temporary threshold shift (TTS), averaged across frequencies [4] | AEP hearing threshold, significance of pairwise comparison against cisplatin ([4]; 100 Hz) | AEP hearing threshold, significance of pairwise comparison against vehicle ([4]; 100 Hz) | AEP hearing threshold, significance of pairwise comparison against cisplatin ([4]; 250 Hz) | AEP hearing threshold, significance of pairwise comparison against vehicle ([4]; 250 Hz) | AEP hearing threshold, significance of pairwise comparison against cisplatin ([4]; 400 Hz) | AEP hearing threshold, significance of pairwise comparison against vehicle ([4]; 400 Hz) | AEP hearing threshold, significance of pairwise comparison against cisplatin ([4]; 600 Hz) | AEP hearing threshold, significance of pairwise comparison against vehicle ([4]; 600 Hz) | AEP hearing threshold, significance of pairwise comparison against cisplatin ([4]; 800 Hz) | AEP hearing threshold, significance of pairwise comparison against vehicle ([4]; 800 Hz) | AEP hearing threshold, significance of pairwise comparison against cisplatin ([4]; 1000 Hz) | AEP hearing threshold, significance of pairwise comparison against vehicle ([4]; 1000 Hz) | AEP hearing threshold, significance of pairwise comparison against cisplatin ([4]; 1500 Hz) | AEP hearing threshold, significance of pairwise comparison against vehicle ([4]; 1500 Hz) | AEP hearing threshold, significance of pairwise comparison against cisplatin ([4]; 3000 Hz) | AEP hearing threshold, significance of pairwise comparison against vehicle ([4]; 3000 Hz) | other results
phenanthriplatin | 1.6 ± 1.22 µM | 2.41 ± 0.11 µM | 1.24 ± 0.48 µM | 13.3 ± 2.9 dB | * (* p ≤ 0.05) | *** (*** p ≤ 0.001) | ns (ns, p > 0.05) | ns (ns, p > 0.05) | ns (ns, p > 0.05) | *** (*** p ≤ 0.001) | ns (ns, p > 0.05) | ** (** p ≤ 0.01) | * (* p ≤ 0.05) | **** (**** p ≤ 0.0001) | * (* p ≤ 0.05) | **** (**** p ≤ 0.0001) | ns (ns, p > 0.05) | ns (ns, p > 0.05) | ** (** p ≤ 0.01) | **** (**** p ≤ 0.0001) | mean (± S.E.) temporary threshold shift (TTS), averaged across frequencies ([4]; listed as phenanthriplatin): 13 dB; effect on hair cell density in four regions of the saccule compared to vehicle [5]: reduction only at 50%; saccule hair cell density, % of control ([5]; 50% location along rostral-caudal axis): 64.8 % of control
[Cl][Pt-2]12[NH2+]CC[NH+]1CC[NH2+]2 (centres unmarked) [[Pt(dien)Cl]^+, Pt(diethylenetriamine)Cl] | 41.5 ± 0.72 µM | 209 ± 42.3 µM | 56 ± 6.1 µM | 12.0 ± 3.0 dB | ns (ns, p > 0.05) | * (* p ≤ 0.05) | ns (ns, p > 0.05) | ns (ns, p > 0.05) | ns (ns, p > 0.05) | **** (**** p ≤ 0.0001) | ns (ns, p > 0.05) | **** (**** p ≤ 0.0001) | ns (ns, p > 0.05) | **** (**** p ≤ 0.0001) | ns (ns, p > 0.05) | **** (**** p ≤ 0.0001) | ns (ns, p > 0.05) | ns (ns, p > 0.05) | ns (ns, p > 0.05) | * (* p ≤ 0.05) | effect on hair cell density in four regions of the saccule compared to vehicle [5]: no significant reduction in hair cell bundles
